According to patent US8653046B2, “Controlling transgene expression across the skin” (ETH Zurich, priority 2009, dated 2014):

Assays:
TtgA1 (TtgR-VP16) = TtgA1 (TtgR-VP16) (Pseudomonas putida, UniProt Q9AIU0); assay: PEACE: SEAP expression after transient co-transfection of pMG10 (PTtgR1-SEAP-pA) and pMG11 (PSV40-TtgA1-pA); format: cell-based; design: key to SEAP Production: ^a): Undetectable; conditions: 48 h
From the text: Living in the plant rhizosphere, Pseudomonas putida DOT-T1E has evolved resistance to a variety of plant-derived antimicrobials, which is triggered by phloretin-induced release of TtgR protein from the operator (OTtgR) of its target promoter and subsequent induction of a broadly specific TtgABC efflux pump (Teran W. et al., loc. cit.).
Three different transactivators are designed, harboring either the VP16 (TtgA1; pMG11, TtgR-VP16) (Triezenberg S. J. et al., loc. cit.), the p65 (TtgA2; pMG18, TtgR-p65) (Urlinger S., et al., 2000, Gene 247(1-2):103-110) or the human E2F4 (TtgA3; pMG19, TtgR-E2F4) (Akagi K., Kanai M., Saya H., Kozu T., Berns A., 2001, Nucleic Acids Res 29(4):e23) transactivation domains. pMG11, pMG18 or pMG19 are co-transfected with pMG10 (PTtgR1-SEAP-pA) into CHO-K1, HEK-293 as well as primary human fibroblasts and keratinocytes, and SEAP expression is profiled after 48 h of cultivation in the presence or absence of 50 μM phloretin.
CHO-K1 are transiently (co-)transfected with either pMG10 (PTtgR1-SEAP-pA) and pMG11 (PSV40-TtgA1-pA), to score regulation performance, or with pSEAP2-Control (PSV40-SEAP-pA), to assess compound-related cytotoxicity, and then cultivated for 48 h in medium containing different concentrations (0, 25, 50 μM) of specific flavonoid type compounds (berberine, butylparaben, genistein, luteolin, β-naphthol, naringenin, phloretin, phloridzin or quercetin) before SEAP production is profiled (FIG. 5A).
Wild-type Chinese hamster ovary cells (CHO-K1, ATCC: CCL-61) and their derivatives are cultivated in standard medium: ChoMaster® HTS (Cell Culture Technologies, Gravesano, Switzerland) supplemented with 5% (v/v) fetal calf serum (FCS, PAN Biotech GmbH, Aidenbach, Germany, Cat. No. 3302, Lot No. P251110) and 1% (v/v) penicillin/streptomycin solution (Sigma, St Louis, Mo., USA, Cat. No. P4458). Human embryonic kidney cells (HEK-293, Mitta B., et al., 2002, Nucleic Acids Res 30(21):e113), African green monkey kidney cells (COS-7, ATCC: CRL-1651), baby hamster kidney cells (BHK-21, ATCC: CCL10), human fibrosarcoma cells (HT-1080, ATCC: CCL-121), the human keratinocyte cell line HaCaT (Boukamp P., et al., 1988, J Cell Biol 106(3):761-771) and mouse fibroblasts (NIH/3T3, ATCC: CRL-1658) are cultured in Dulbecco's modified Eagle's medium (DMEM; Invitrogen, Cat. No. 52100-39) supplemented with 10% FCS (v/v) and 1% (v/v) penicillin/streptomycin solution. Primary human foreskin fibroblasts are cultivated in DMEM supplemented with 20% FCS (v/v) and 1% (v/v) penicillin/streptomycin solution and primary human foreskin keratinocytes are cultured in chemically defined serum-free keratinocyte medium (Invitrogen, Cat. No. 10744019). All cell types are cultivated at 37° C. in a 5% CO2-containing humidified atmosphere.

CHO-K1 = assay: Impact of phloretin on CHO-K1 engineered for constitutive SEAP expression (SEAP production, viable cell density); format: cell-based, Chinese hamster; conditions: 48 h
Experimental: CHO-K1 engineered for constitutive SEAP expression are cultivated in culture medium supplemented with different phloretin concentrations (0-100 μM) and SEAP production (bars) as well as maximum cell density are assessed after 48 h (line). Abbreviations: C.D.: Cell Density (10^6/mL); Phl.: Phloretin (μM)
To evaluate the stability of phloretin in culture medium and assess its impact on mammalian cells, standard ChoMaster® HTS medium is supplemented with increasing concentrations of phloretin (0, 25, 50, 75, 100 μM), and this medium is incubated in the presence and absence of CHO-K1 engineered for constitutive SEAP expression (pSEAP2-Control; PSV40-SEAP-pA, Clontech). […] Phloretin levels determined over a period of 64 h in cell-free culture medium establish a functional half-live of 70 h for this flavonoid.

[1] = molecular target: T1, tetracycline-responsive control system (PSV40-tTA-pA; PhCMV*-1-SAMY-pA) (Escherichia coli, UniProt P04483); assay: Compatibility test: tetracycline-responsive (TETOFF) SAMY production in CHO-PEACE8 (pSAM200, pBP99); format: cell-based; conditions: CHO-PEACE8 transiently transfected with tetracycline-responsive control system; Phl 50 μM, Tet 2 μg/mL; 48 h; 100 = no inducer
T1 construct: expressed in transfected cells; host or cells: CHO-PEACE8 transiently transfected with pSAM200 and pBP99
T1 sequence (P04483 whole entry, added parts left off): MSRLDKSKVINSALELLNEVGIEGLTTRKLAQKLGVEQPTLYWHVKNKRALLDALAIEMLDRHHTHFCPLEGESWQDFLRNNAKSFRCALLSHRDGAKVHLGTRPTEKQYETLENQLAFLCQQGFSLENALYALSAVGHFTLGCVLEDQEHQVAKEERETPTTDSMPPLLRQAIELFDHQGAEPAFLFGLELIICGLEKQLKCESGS
From the text: (§1) To evaluate the functional compatibility of PEACE with the established tetracycline— [TETOFF; Gossen M., Bujard H., 1992, Proc Natl Acad Sci USA 89(12):5547-5551] and macrolide— [EOFF; Weber W., et al., 2002, Nat Biotechnol 20(9):901-907] responsive expression circuits CHO-PEACE8 is transiently transfected, transgenic for phloretin-responsive SEAP expression, with either the TETOFF-(pSAM200, PSV40-tTA-pA; pBP99, PhCMV*-1-SAMY-pA) or the EOFF-(PWW35, PSV40-ET1-pA; pBP100, PETR3-SAMY-pA) system set to control the Bacillus stearothermophilus-derived secreted α-amylase (SAMY) in response to tetracycline and erythromycin, respectively. SEAP and SAMY expression are scored 48 h after cultivation of the transfected populations in the presence (50 μM; 2 μg/mL) or absence of the inducer molecules (phloretin, tetracycline, erythromycin).

[2] = test system: macrolide-responsive control system (ET1, E-VP16; PETR3-SAMY-pA); assay: Compatibility test: macrolide-responsive (EOFF) SAMY production in CHO-PEACE8 (pWW35, pBP100); format: cell-based; conditions: CHO-PEACE8 transiently transfected with macrolide-responsive control system; Phl 50 μM, EM 2 μg/mL; 48 h; 100 = no inducer
From the text: as §1

TtgA1 (TtgR-VP16), sequence (Q9AIU0 whole entry, added parts left off): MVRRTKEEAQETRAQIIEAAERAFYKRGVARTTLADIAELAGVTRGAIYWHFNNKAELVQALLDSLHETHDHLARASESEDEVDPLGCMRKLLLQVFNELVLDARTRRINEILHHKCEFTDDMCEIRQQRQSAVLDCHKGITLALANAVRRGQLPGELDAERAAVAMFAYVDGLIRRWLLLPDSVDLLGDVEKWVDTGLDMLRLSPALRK

## O=C(CCc1ccc(O)cc1)c1c(O)cc(O)cc1O [phloretin, 3-[4-hydroxyphenyl]-1-[2,4,6-trihydroxyphenyl]-1-propanone]
TtgA1 (TtgR-VP16); BHK-21, 50 μM Phloretin
  SEAP Production: 1.5 ± 0.2 U/L
TtgA1 (TtgR-VP16); CHO-K1, 0, 25, 50 μM
  PEACE regulation performance (SEAP production): full transgene repression
TtgA1 (TtgR-VP16); CHO-K1, phloretin 0-70 μM
  SEAP expression dose response: dose-dependent reduction of SEAP expression up to complete repression
TtgA1 (TtgR-VP16); CHO-K1, phloretin 50 μM
  SEAP Production: 0.2 ± 0.016 U/L
TtgA1 (TtgR-VP16); COS-7, 50 μM Phloretin
  SEAP Production: *
TtgA1 (TtgR-VP16); HEK-293, 50 μM Phloretin
  SEAP Production: 0.2 ± 0.04 U/L
TtgA1 (TtgR-VP16); HEK-293, phloretin 50 μM
  SEAP Production: 0.2 ± 0.04 U/L
TtgA1 (TtgR-VP16); HT-1080, 50 μM Phloretin
  SEAP Production: *
TtgA1 (TtgR-VP16); HaCaT, 50 μM Phloretin
  SEAP Production: *
TtgA1 (TtgR-VP16); NIH/3T3, 50 μM Phloretin
  SEAP Production: *
TtgA1 (TtgR-VP16); Primary human fibroblasts, 50 μM Phloretin
  SEAP Production: *
TtgA1 (TtgR-VP16); Primary human keratinocytes, 50 μM Phloretin
  SEAP Production: *
CHO-K1; CHO-K1 constitutive SEAP (pSEAP2-Control), phloretin 0, 25, 50, 75, 100 μM
  impact on heterologous protein (SEAP) production: no negative impact on heterologous protein production
CHO-K1; phloretin up to 100 μM
  viable cell density / CHO-K1 proliferation: does not compromise CHO-K1 proliferation
[1]
  Relative SAMY Production (%): 98.1 ± 2.8%
[2]
  Relative SAMY Production (%): 100.6 ± 7.0%
